{"source": "patent US12059469B2", "about": "“Compositions and methods for wound treatment” (priority 2017, dated 2024)", "origin": "cited, not measured here", "key": {"[1]": {"test_system": "mouse ear punch wound", "conditions": "topical application, dissolved in DMSO"}, "[2]": {"test_system": "TGF-β"}, "[3]": {"test_system": "Wnt/β-catenin-mediated transcription", "conditions": "through TNK 1 and 2 inhibition"}, "[4]": {"test_system": "CRE"}, "[5]": {"test_system": "NF-κK"}}}
{"molecule": "Oc1nc(-c2ccc(C(F)(F)F)cc2)nc2c1CSCC2", "note": "[XAV939, 3,5,7,8-Tetrahydro-2-[4-(trifluoromethyl)phenyl]-4H-thiopyrano[4,3-d]pyrimidin-4-one]", "values": [{"measurement": "fibrosis (scarring)", "setting": "[1]", "value": "reduced fibrosis"}, {"measurement": "rate of wound closure", "setting": "[1]", "value": "significantly increased rate of wound closure"}, {"measurement": "effect on TGF-β", "setting": "[2]", "value": "does not affect"}, {"measurement": "Wnt/β-catenin-mediated transcription", "setting": "[3]", "value": "selectively inhibits"}, {"measurement": "aqueous solubility", "value": "< 1000", "unit": "µg/mL"}, {"measurement": "effect on CRE", "setting": "[4]", "value": "does not affect"}, {"measurement": "effect on NF-κK", "setting": "[5]", "value": "does not affect"}]}
